Values belong to the molecule of their own block, whether it stands above or below them.
Target: T1, DRD3 (Homo sapiens, UniProt P35462)
T1 construct: purchased Promega (in-house HiBiT-GPCR construct library, NanoBRET)
Assay: NanoBRET screen HiBiT-DRD3 in HEK293
Assay type: binding
Method: Each tracer candidate was screened across the entire library of HiBiT-GPCR constructs using NanoBRET as the detection modality. As depicted in Figure 4A, the specificity of interactions was evaluated through decrease in BRET due to competitive displacement of a bound tracer by excess parental compound. Each tracer was analyzed for binding to each HiBiT-GPCR fusion in the absence and in the presence of competing parental compound. Briefly, HEK293 cells were transfected with HiBiT-GPCR constructs diluted into promoterless DNA to reduce expression and maximize translocation to the cell surface. Each tracer candidate was then screened at concentrations of 1 μM and 0.1 μM across cells expressing these fusions. Cells were treated for 1.5 h with tracer either alone or in the presence of 20 μM competing parental compound (i.e., control). BRET was measured upon addition of purified LgBiT and subsequent complementation with HiBiT genetically fused to a GPCR. The specificity of interactions was assessed through a decrease in BRET signal due to competitive displacement of the bound tracer. To further gauge the robustness of these interactions, the fold response over the control (i.e., BRETtracer/BRETcontrol) was calculated. We chose a 1.5-fold response, which translates to ≥7-fold signal over noise as the minimal threshold required to score an interaction as positive.
HiBiT-GPCR DNA constructs were diluted in 10 mM Tris pH 8 to a final concentration of 0.01 μg/μL, arrayed in 96-well plates and stored at −20 °C. For transfection, HEK293 cells were suspended in Opti-MEM (without phenol red) supplemented with 2% fetal bovine serum (Seradigm) and 100 units/mL penicillin–streptomycin (Gibco) at a final concentration of 220,000 cells/mL and dispensed into white 96-well plates at 90 μL/well. Subsequent transfections and screens were carried using an Agilent Bravo Automated Liquid Handling Platform. First, the 96-well HiBiT DNA arrays were diluted 25-fold in Opti-MEM (without serum or phenol red) to a final concentration of 0.0004 μg/μL and 20 μL of the diluted DNAs were transferred into new 96-well plates. Next, promoterless carrier DNA (1 μg/μL) was diluted 25-fold (0.04 μg/μL) and then dispensed into the diluted arrays at 20 μL/well. Following brief mixing, Viafect transfection reagent (Promega) diluted 16-fold into Opti-MEM was dispensed into the plates at 40 μL/well. After mixing by pipetting, plates were incubated for 10 min on the pipetting station deck. The DNA-transfection reagent complexes were then added to plates containing cells. To facilitate the screen, 10 μL of DNA-transfection reagent complexes were added in duplicates to the top 4 and bottom 4 rows, resulting in two identical 48-well arrays per plate. Plates with transfected cells were incubated for 18–20 h at 37 °C/5% CO2. A screen of each tracer across the entire library using two different concentrations requires duplicate plates of transfected cells. Depending on the number of tracers being screened, transfections can be scaled up using the same ratios. The next day, for each tracer, four 20× screening solutions in tracer dilution buffer (Promega) were prepared: two duplicates at final concentration of 20 μM and two duplicates at a final concentration of 2 μM. […] The four resulting solutions were diluted 4-fold in Opti-MEM without serum or phenol red to generate 5× solutions (5 µM and 0.5 µM tracer +/− 100 μM competing compound). To screen the library, a BioTek MultiFlo FX liquid dispenser was used to dispense 22.5 µL of tracer solution to the top 4 rows and 22.5 µL tracer + competing compound solution to the 4 bottom rows. Plates were briefly mixed on an orbital shaker and incubated for 1.5 h at room temperature. […] Plates were briefly mixed on an orbital shaker and incubated for 15 min to allow complementation.

T1 sequence (P35462 whole entry): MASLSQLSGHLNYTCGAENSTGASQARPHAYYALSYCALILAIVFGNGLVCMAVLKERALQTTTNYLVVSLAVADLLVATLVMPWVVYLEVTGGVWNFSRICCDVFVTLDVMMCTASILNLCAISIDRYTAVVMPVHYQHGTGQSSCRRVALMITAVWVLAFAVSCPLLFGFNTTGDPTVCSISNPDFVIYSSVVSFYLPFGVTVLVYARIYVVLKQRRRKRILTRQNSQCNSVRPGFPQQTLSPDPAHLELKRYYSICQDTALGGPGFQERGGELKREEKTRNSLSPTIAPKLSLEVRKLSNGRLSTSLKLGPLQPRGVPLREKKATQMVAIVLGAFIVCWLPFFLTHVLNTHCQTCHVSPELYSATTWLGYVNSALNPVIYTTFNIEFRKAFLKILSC

- NanoBRET Fold Response (DRD3, 0.1μM): 0.99
- NanoBRET Fold Response (DRD3, 1μM): 1.01
Structure (SMILES): CCOC(=O)c1cc(C#N)c(N2CCC(C(=O)NS(=O)(=O)Cc3ccccc3/C=C/C(=O)NCCNC(=O)CCc3ccc4n3[B-](F)(F)[N+]3=C(c5ccc[nH]5)C=CC3=C4)CC2)nc1C [AZD1283-1-NB590]

Structure (SMILES): Cc1cc2c(s1)Nc1ccccc1N=C2N1CCN(CCCNC(=O)CCOCCOCCOCCOCCNC(=O)CCc2ccc3n2[B-](F)(F)[N+]2=C(c4ccc[nH]4)C=CC2=C3)CC1 [Olanzapine-a-2-NB590]
- NanoBRET Fold Response (DRD3, tracer 0.1μM): 1.74
- NanoBRET Fold Response (DRD3, tracer 1μM): 2.07

Structure (SMILES): COc1ccccc1N1CCN(CCCCN2C(=O)c3ccc(CNC(=O)CCOCCNC(=O)c4ccc(CNC(=O)CCc5ccc6n5[B-](F)(F)[N+]5=C(c7ccc[nH]7)C=CC5=C6)cc4)cc3C2=O)CC1 [NAN-190-3-NB590]
- NanoBRET Fold Response (DRD3, tracer 0.1μM): 2.25
- NanoBRET Fold Response (DRD3, tracer 1μM): 1.52

Structure (SMILES): CC(C)N(CC[C@H](c1ccccc1)c1cc(CCNC(=O)CCOCCOCCOCCOCCNC(=O)CCc2ccc3n2[B-](F)(F)[N+]2=C(c4ccc[nH]4)C=CC2=C3)ccc1O)C(C)C [Tolterodine-2-NB590]
- NanoBRET Fold Response (DRD3, tracer 0.1μM): 0.97
- NanoBRET Fold Response (DRD3, tracer 1μM): 0.98

Structure (SMILES): CN(C)CCC=C1c2ccccc2CCc2ccc(C(=O)NCCNC(=O)CCOCCOCCOCCOCCNC(=O)CCc3ccc4n3[B-](F)(F)[N+]3=C(c5ccc[nH]5)C=CC3=C4)cc21 [Amitriptyline-b-2-NB590]
- NanoBRET Fold Response (tracer at 0.1μM, listed as amitriptyline-b-2-NB590): 1.68
- NanoBRET Fold Response (tracer at 1μM, listed as amitriptyline-b-2-NB590): 1.25

Structure (SMILES): CN(C)CCC=C1c2ccccc2CCc2ccc(C(=O)NCCNC(=O)CCOCCOCCOCCOCCNC(=O)CCc3ccc4n3[B-](F)(F)[N+]3=C(c5ccc[nH]5)C=CC3=C4)cc21 [Amitriptyline-a-2-NB590]
- NanoBRET Fold Response (tracer at 0.1μM): 1.13
- NanoBRET Fold Response (tracer at 1μM): 1.37

Structure (SMILES): O=C(CCc1ccc2n1[B-](F)(F)[N+]1=C(c3ccc[nH]3)C=CC1=C2)NCCOCCOCCNC(=O)OCCOCCN1CCN(C2=Nc3ccccc3Sc3ccccc32)CC1 [Quetiapine-a-2-NB590]
- NanoBRET Fold Response (DRD3, tracer 0.1μM): 1.56
- NanoBRET Fold Response (DRD3, tracer 1μM): 1.98

Structure (SMILES): COc1ccccc1N1CCN(CCCCN2C(=O)c3ccc(CNC(=O)CCOCCOCCOCCOCCNC(=O)CCc4ccc5n4[B-](F)(F)[N+]4=C(c6ccc[nH]6)C=CC4=C5)cc3C2=O)CC1 [NAN-190-2-NB590]
- NanoBRET Fold Response (DRD3, tracer 0.1μM): 2.36
- NanoBRET Fold Response (DRD3, tracer 1μM): 1.69

Structure (SMILES): CN1CCN(C2=Nc3cc(Cl)ccc3N(CC(=O)NCCOCCOCCOCCOCCNC(=O)CCc3ccc4n3[B-](F)(F)[N+]3=C(c5ccc[nH]5)C=CC3=C4)c3ccccc32)CC1 [Clozapine-c-2-NB590]
- NanoBRET Fold Response (DRD3, 0.1μM tracer): 0.96
- NanoBRET Fold Response (DRD3, 1μM tracer): 0.76

- NanoBRET Fold Response (DRD3, other tracers/Aminopotentidine (unmodified), 0.1μM): 1.16
- NanoBRET Fold Response (DRD3, other tracers/Aminopotentidine (unmodified), 1μM): 1.64
Structure (SMILES): N#CN/C(=N\CCNC(=O)c1ccc(N)cc1)NCCCOc1cccc(CN2CCCCC2)c1 [Aminopotentidine (unmodified)]

- NanoBRET Fold Response (0.1μM tracer): 0.93
- NanoBRET Fold Response (1μM tracer): 1.05
Structure (SMILES): COc1ccc2[nH]c(-c3ccc(CNC(=O)CCOCCOCCOCCOCCNC(=O)CCc4ccc5n4[B-](F)(F)[N+]4=C(c6ccc[nH]6)C=CC4=C5)cc3)c(CCNC(C)=O)c2n1 [AzomelatoninICO9-2-NB590]

- NanoBRET Fold Response (DRD3, 0.1μM tracer): 2.22
- NanoBRET Fold Response (DRD3, 1μM tracer): 2.49
Structure (SMILES): O=C(CCOCCOCCOCCOCCNC(=O)CCc1ccc2n1[B-](F)(F)[N+]1=C(c3ccc[nH]3)C=CC1=C2)NCCCN1CCN(C2=Nc3cc(Cl)ccc3Nc3ccccc32)CC1 [Clozapine-a-2-NB590]

Structure (SMILES): CCCn1c(=O)c2[nH]c(-c3ccc(OCC(=O)NCCNC(=O)CCOCCNC(=O)c4ccc(CNC(=O)CCc5ccc6n5[B-](F)(F)[N+]5=C(c7ccc[nH]7)C=CC5=C6)cc4)cc3)nc2n(CCC)c1=O [XAC-3-NB590]
- NanoBRET Fold Response (DRD3, tracer 0.1μM): 1.23
- NanoBRET Fold Response (DRD3, tracer 1μM): 0.81

Structure (SMILES): O=C(CCc1ccc2n1[B-](F)(F)[N+]1=C(c3ccc[nH]3)C=CC1=C2)NCc1ccc(C(=O)NCCOCCOCCNCC(O)COc2cccc3ccccc23)cc1 (stereo not drawn) [Propranolol-3-NB590]
- NanoBRET Fold Response (DRD3, 0.1μM): 1.05
- NanoBRET Fold Response (DRD3, 1μM): 1.30

Structure (SMILES): O=C(CCc1ccc2n1[B-](F)(F)[N+]1=C(c3ccc[nH]3)C=CC1=C2)NCc1ccc(C(=O)NCCOCCC(=O)N[C@@H]2CC[C@@]3(O)[C@H]4Cc5ccc(O)c6c5[C@@]3(CCN4CC3CC3)[C@H]2O6)cc1 [Naltrexone-3-NB590]
- NanoBRET Fold Response (DRD3, tracer 0.1μM): 0.79
- NanoBRET Fold Response (DRD3, tracer 1μM): 1.37

Structure (SMILES): CN(CCC=C1c2ccccc2CCc2ccccc21)C(=O)CCOCCOCCOCCOCCNC(=O)CCc1ccc2n1[B-](F)(F)[N+]1=C(c3ccc[nH]3)C=CC1=C2 [Amitriptyline-e-2-NB590]
- NanoBRET Fold Response (tracer at 1μM): 1.24

- NanoBRET Fold Response (DRD3, tracer 0.1μM): 1.25
- NanoBRET Fold Response (DRD3, tracer 1μM): 1.17
Structure (SMILES): N#CN=C(NCCCOc1cccc(CN2CCCCC2)c1)NCCNC(=O)CCOCCOCCOCCOCCNC(=O)CCc1ccc2n1[B-](F)(F)[N+]1=C(c3ccc[nH]3)C=CC1=C2 [Aminopotentidine-2-NB590]

- NanoBRET Fold Response (0.1μM tracer): 1.14
- NanoBRET Fold Response (1μM tracer): 1.27
Structure (SMILES): COc1ccc2c(n1)c(CCNC(C)=O)cn2CCNC(=O)CCc1ccc2n1[B-](F)(F)[N+]1=C(c3ccc[nH]3)C=CC1=C2 [Azamelatonin-1-NB590]

Structure (SMILES): CC(C)N(CC[C@H](c1ccccc1)c1cc(CCNC(=O)c2ccc(CNC(=O)CCc3ccc4n3[B-](F)(F)[N+]3=C(c5ccc[nH]5)C=CC3=C4)cc2)ccc1O)C(C)C [Tolterodine-BZ-NB590]
- NanoBRET Fold Response (DRD3, tracer 0.1μM): 0.91
- NanoBRET Fold Response (DRD3, tracer 1μM): 1.25

Structure (SMILES): CN1CCN(C2=Nc3cc(Cl)ccc3Nc3ccc(CNC(=O)CCOCCOCCOCCOCCNC(=O)CCc4ccc5n4[B-](F)(F)[N+]4=C(c6ccc[nH]6)C=CC4=C5)cc32)CC1 [Clozapine-b-2-NB590]
- NanoBRET Fold Response (DRD3, 0.1μM tracer): 1.54
- NanoBRET Fold Response (DRD3, 1μM tracer): 2.63

From publication PMC8151276, “An Integrated Approach toward NanoBRET Tracers for Analysis of GPCR Ligand Engagement” (Molecules, 2021)
